Reference: US20100222332A1, “PYRAZOLO-PYRAZINES DERIVATIVES USED AS G PROTEIN INHIBITORS” (Ipsen Pharma S.A.S., priority 2007, published 2010)
Where a name gives a salt, the structure may show the parent alone.

With CCCCCC1c2cc(-c3ccccc3)nn2CCN1C(=O)[C@@H](N)CSSC[C@H](N)C(=O)N1CCn2nc(-c3ccccc3)cc2C1CCCCC (mixture of isomers) (as salt: hydrochloride) [Example 20, (2R)-3-({(2R)-2-amino-3-oxo-3-[(4RS)-4-pentyl-2-phenyl-6,7-dihydropyrazolo[1,5-a]pyrazin-5(4H)-yl]propyl}dithio)-1-oxo-1-[(4RS)-4-pentyl-2-phenyl-6,7-dihydropyrazolo[1,5-a]pyrazin-5(4H)-yl]propan-2-amine hydrochloride] the melting point was 199 to 204 °C (dec.).
With CCCCC1c2cc(-c3ccccc3)nn2CCN1C(=O)[C@@H](N)CSSC[C@H](N)C(=O)N1CCn2nc(-c3ccccc3)cc2C1CCCC (mixture of isomers) (as salt: hydrochloride) [Example 21, (2R)-3-({(2R)-2-amino-3-[(4RS)-4-butyl-2-phenyl-6,7-dihydropyrazolo[1,5-a]pyrazin-5(4H)-yl]-3-oxopropyl}dithio)-1-[(4RS)-4-butyl-2-phenyl-6,7-dihydropyrazolo[1,5-a]pyrazin-5(4H)-yl]-1-oxopropan-2-amine hydrochloride] the melting point was 210 to 215 °C (dec.).
With N[C@@H](CSSC[C@H](N)C(=O)N1CCn2nc(-c3ccccn3)cc2C1CCc1ccccc1)C(=O)N1CCn2nc(-c3ccccn3)cc2C1CCc1ccccc1 (mixture of isomers) (as salt: hydrochloride) [Example 32, (2R)-3-({(2R)-2-amino-3-oxo-3-[(4RS)-4-(2-phenylethyl)-2-pyridin-2-yl-6,7-dihydropyrazolo[1,5-a]pyrazin-5(4H)-yl]propyl}dithio)-1-oxo-1-[(4RS)-4-(2-phenylethyl)-2-pyridin-2-yl-6,7-dihydropyrazolo[1,5-a]pyrazin-5(4H)-yl]propan-2-amine hydrochloride] the melting point was 232 to 234 °C (dec.).

Compared with N[C@@H](CSSC[C@H](N)C(=O)N1CCn2nc(-c3ccc(Cl)cc3Cl)cc2C1CCc1ccccc1)C(=O)N1CCn2nc(-c3ccc(Cl)cc3Cl)cc2C1CCc1ccccc1 (mixture of isomers) (as salt: hydrochloride) [Example 22, (2R)-3-({(2R)-2-amino-3-[(4RS)-2-(2,4-dichlorophenyl)-4-(2-phenylethyl)-6,7-dihydropyrazolo[1,5-a]pyrazin-5(4H)-yl]-3-oxopropyl}dithio)-1-[(4RS)-2-(2,4-dichlorophenyl)-4-(2-phenylethyl)-6,7-dihydropyrazolo[1,5-a]pyrazin-5(4H)-yl]-1-oxopropan-2-amine hydrochloride], CC(C)(C)OC(=O)N[C@@H](CSSC[C@H](NC(=O)OC(C)(C)C)C(=O)N1CCn2nc(-c3cccs3)cc2C1CCc1ccccc1)C(=O)N1CCn2nc(-c3cccs3)cc2C1CCc1ccccc1 (mixture of isomers) [Example 7, tert-butyl {(1R)-1-[({(2R)-2-[(tert-butoxycarbonyl)amino]-3-oxo-3-[(4RS)-4-(2-phenylethyl)-2-(2-thienyl)-6,7-dihydropyrazolo[1,5-a]pyrazin-5(4H)-yl]propyl}dithio)methyl]-2-oxo-2-[(4RS)-4-(2-phenylethyl)-2-(2-thienyl)-6,7-dihydropyrazolo[1,5-a]pyrazin-5(4H)-yl]ethyl}carbamate] is lower in melting point: 198 to 202 °C for the first, 105 to 112 °C for the second.

First: N[C@@H](CSSC[C@H](N)C(=O)N1CCCn2nc(-c3ccccc3)cc2C1CC1CCCCC1)C(=O)N1CCCn2nc(-c3ccccc3)cc2C1CC1CCCCC1 (mixture of isomers) (as salt: hydrochloride) [Example 28, {(1R)-1-[({(2R)-2-amino-3-[(4RS)-4-(cyclohexylmethyl)-2-phenyl-7,8-dihydro-4H-pyrazolo[1,5-a][1,4]diazepin-5(6H)-yl]-3-oxopropyl}dithio)methyl]-2-[(4RS)-4-(cyclohexylmethyl)-2-phenyl-7,8-dihydro-4H-pyrazolo[1,5-a][1,4]diazepin-5(6H)-yl]-2-oxoethyl}amine hydrochloride]
Second: CC(C)(C)OC(=O)N[C@@H](CSSC[C@H](NC(=O)OC(C)(C)C)C(=O)N1CCn2nc(-c3ccccc3)cc2C1CC1CCCCC1)C(=O)N1CCn2nc(-c3ccccc3)cc2C1CC1CCCCC1 (mixture of isomers) [Example 1, tert-butyl {(1R)-1-[({(2R)-2-[(tert-butoxycarbonyl)amino]-3-[(4RS)-4-(cyclohexylmethyl)-2-phenyl-6,7-dihydropyrazolo[1,5-a]pyrazin-5(4H)-yl]-3-oxopropyl}dithio)methyl]-2-[(4RS)-4-(cyclohexylmethyl)-2-phenyl-6,7-dihydropyrazolo[1,5-a]pyrazin-5(4H)-yl]-2-oxoethyl}carbamate]
The melting point of the first is higher: 198 to 208 °C for the first, 129 to 132 °C for the second.

Compared with CC(C)(C)OC(=O)N[C@@H](CSSC[C@H](NC(=O)OC(C)(C)C)C(=O)N1CCn2nc(-c3ccccc3)cc2C1CCc1ccccc1)C(=O)N1CCn2nc(-c3ccccc3)cc2C1CCc1ccccc1 (mixture of isomers) [Example 2, tert-butyl {(1R)-1-[({(2R)-2-[(tert-butoxycarbonyl)amino]-3-oxo-3-[(4RS)-2-phenyl-4-(2-phenylethyl)-6,7-dihydropyrazolo[1,5-a]pyrazin-5(4H)-yl]propyl}dithio)methyl]-2-oxo-2-[(4RS)-2-phenyl-4-(2-phenylethyl)-6,7-dihydropyrazolo[1,5-a]pyrazin-5(4H)-yl]ethyl}carbamate], CC(C)(C)OC(=O)N[C@@H](CSSC[C@H](NC(=O)OC(C)(C)C)C(=O)N1CCn2nc(-c3ccncc3)cc2C1CCc1ccccc1)C(=O)N1CCn2nc(-c3ccncc3)cc2C1CCc1ccccc1 (mixture of isomers) [Example 3, tert-butyl {(1R)-1-[({(2R)-2-[(tert-butoxycarbonyl)amino]-3-oxo-3-[(4RS)-4-(2-phenylethyl)-2-pyridin-4-yl-6,7-dihydropyrazolo[1,5-a]pyrazin-5(4H)-yl]propyl}dithio)methyl]-2-oxo-2-[(4RS)-4-(2-phenylethyl)-2-pyridin-4-yl-6,7-dihydropyrazolo[1,5-a]pyrazin-5(4H)-yl]ethyl}carbamate] is higher in melting point: 123 to 127 °C for the first, 149 to 152 °C for the second.

Compared with CC(C)(C)OC(=O)N[C@@H](CSSC[C@H](NC(=O)OC(C)(C)C)C(=O)N1CCn2nc(-c3cccnc3)cc2C1CCc1ccccc1)C(=O)N1CCn2nc(-c3cccnc3)cc2C1CCc1ccccc1 (mixture of isomers) [Example 4, tert-butyl {(1R)-1-[({(2R)-2-[(tert-butoxycarbonyl)amino]-3-oxo-3-[(4RS)-4-(2-phenylethyl)-2-pyridin-3-yl-6,7-dihydropyrazolo[1,5-a]pyrazin-5(4H)-yl]propyl}dithio)methyl]-2-oxo-2-[(4RS)-4-(2-phenylethyl)-2-pyridin-3-yl-6,7-dihydropyrazolo[1,5-a]pyrazin-5(4H)-yl]ethyl}carbamate], COc1cc(-c2cc3n(n2)CCN(C(=O)[C@H](CSSC[C@H](NC(=O)OC(C)(C)C)C(=O)N2CCn4nc(-c5cc(OC)c(OC)c(OC)c5)cc4C2CCc2ccccc2)NC(=O)OC(C)(C)C)C3CCc2ccccc2)cc(OC)c1OC (mixture of isomers) [Example 6, tert-butyl {(1R)-1-[({(2R)-2-[(tert-butoxycarbonyl)amino]-3-oxo-3-[(4RS)-4-(2-phenylethyl)-2-(3,4,5-trimethoxyphenyl)-6,7-dihydropyrazolo[1,5-a]pyrazin-5(4H)-yl]propyl}dithio)methyl]-2-oxo-2-[(4RS)-4-(2-phenylethyl)-2-(3,4,5-trimethoxyphenyl)-6,7-dihydropyrazolo[1,5-a]pyrazin-5(4H)-yl]ethyl}carbamate] is higher in melting point: 115 to 130 °C for the first, 130 to 136 °C for the second.
